# Results reported in paper PMC12298629, “New Derivatives of Caracasine Acid with Anti-Leukemic Activity and Limited Effectiveness in Spheroid Cultures” (Pharmaceuticals, 2025).
# Legend:
# BJ = assay: Cytotoxic MTS assay, BJ fibroblasts; format: cell-based; settings: human fibroblasts, 72 h, median of five assays
# Source text: (§1) The cancer cell lines used in the cytotoxic assays were acquired from the American Tissue Culture Collection (ATCC) (Manassas, VA, USA) and maintained as described previously. The MRC-5 and BJ human fibroblasts were used as non-tumoral control cells. The (MRC-5 LD and BJ LD) are also human fibroblast cell lines resistant to doxorubicin. […] The Raji and Ramos cell lines correspond to B-cell leukemia. Other cells, such as U2OS, represent a child osteosarcoma, while HCT116 is a colorectal tumor cell line. (HCT116p53^−/−, Horizon Discovery Ltd., Cambridge, UK) is a similar cell line with its p53 gene knocked down, serving as a model of human cancer frequently associated with a poor prognosis. The cells were maintained in Nunc/corning 80 cm^2 plastic tissue culture flasks and cultured in a cell culture medium according to ATCC or Horizon recommendations (McCoy, DMEM/RPMI 1640 with 5 g/L glucose, 2 mM glutamine, 100 U/mL penicillin, […] streptomycin, 10% fetal calf serum, and NaHCO3). The compounds were freshly dissolved in DMSO. The final concentration of DMSO was 0.01% in the cell culture.
# (§2) The in vitro cytotoxicity of compounds (1–7) was assessed using the standard 3-(4,5-dimethyl-thiazol-2yl)-5-(3-carboxymethoxyphenyl)-2-(sulfophenyl)-2H-tetrazolium (MTS). The assay was performed at the Institute of Molecular and Translational Medicine using a robotic platform (High-ResBiosolutions, Beverly, MA, USA). Cell suspensions were prepared and diluted according to the specific cell type and the expected target cell density (25,000–35,000 cells/mL, based on cell growth characteristics). An automatic pipettor (30 μL) was used to add cells into 384-well microtiter plates. All tested compounds were dissolved in 100% DMSO, and four-fold dilutions of the intended test concentrations were added in 0.15 μL aliquots at time zero to the microtiter plate wells by the echo acoustic non-contact liquid handler Echo550 (Labcyte, San Jose, CA, USA). The assays were accomplished in technical duplicates and at least three biological replicates. The cells were incubated with the tested compound for 72 h at 37 °C in a 5% CO2 atmosphere with 100% humidity. At the end of the incubation period, cells were assayed using the MTS test. Aliquots (5 μL) of the MTS stock solution were pipetted into each well and incubated for 1–4 h. After this incubation period, the optical density (OD) was measured at 490 nm using an Envision reader (PerkinElmer, Waltham, MA, USA). Tumor cell survival (TCS) was calculated using the following equation: TCS = (OD drug-exposed well/mean OD control wells) × 100%. The IC50 value, representing the concentration of the compound lethal to 50% of the tumor cells, was calculated from the corresponding dose-response curves using Dotmatics software (Updated version 2022, London, UK). After three days of incubation on the cancer cell lines and normal fibroblasts, the […] (IC50) were obtained. Five assays were performed for each cell line. The standard error of the assays was lower than 10%, as assessed by the triplicate assays.
# BJ LD = assay: Cytotoxic MTS assay, BJ LD fibroblasts (doxorubicin-resistant); format: cell-based; settings: doxorubicin-resistant human fibroblasts, 72 h, median of five assays
# Source text: as §1, §2
# MRC-5 = assay: Cytotoxic MTS assay, MRC-5 fibroblasts; format: cell-based; settings: 72 h, median of five assays
# Source text: as §1, §2
# MRC-5 LD = assay: Cytotoxic MTS assay, MRC-5 LD fibroblasts (doxorubicin-resistant); format: cell-based; settings: 72 h, median of five assays
# Source text: as §1, §2
# CCRF-CEM = assay: Cytotoxic MTS assay, CCRF-CEM; format: cell-based; settings: human leukemia cell line, 72 h, median of five assays
# Source text: as §1, §2
# K562 = assay: Cytotoxic MTS assay, K562; format: cell-based; settings: 72 h, median of five assays
# Source text: as §1, §2
# RAJI = assay: Cytotoxic MTS assay, Raji; format: cell-based; settings: human leukemia cell line, 72 h, median of five assays
# Source text: as §1, §2
# RAMOS = assay: Cytotoxic MTS assay, Ramos; format: cell-based; settings: human leukemia cell line, 72 h, median of five assays
# Source text: as §1, §2
# HCT116 par = assay: Cytotoxic MTS assay, HCT116 parental 2D; format: cell-based; settings: 72 h, median of five assays
# Source text: as §1, §2
# HCT116KO53 = assay: Cytotoxic MTS assay, HCT116 p53 knockout 2D; format: cell-based; settings: 72 h, median of five assays
# Source text: as §1, §2
# A549 = assay: Cytotoxic MTS assay, A549 2D; format: cell-based; settings: 72 h, median of five assays
# Source text: as §1, §2
# U2OS = assay: Cytotoxic MTS assay, U2OS 2D; format: cell-based; settings: human tumors 2D, 72 h, median of five assays
# Source text: as §1, §2
# HCT116 par spheroids = assay: Spheroid viability assay (CellTiter-Glo 3D), HCT116 parental spheroids; format: cell-based; settings: 72 h, 100 pM to 50 μM
# Experimental: (§3) Spheroid culture aims to analyze the drug’s effect on complex structures resembling solid tumors. The spheroids were prepared using the specific nonadherent plates for spheroid formation (Nunc Sphera, Thermo Fisher, Waltham, MA, USA) according to the simple protocol outlined by the manufacturer. The cell lines HCT116 parental, HCT116KOTp53, A549, and U2OS were cultured at a density of 2500 cells per well using medium containing 10% fetal calf serum and antibiotics: McCoy’s 5A medium for HCT116, F-12K (Kaighn’s Modified) for A549, and Dulbecco’s Modified Eagle Medium (DMEM). The cells were grown in culture for 48 h as recommended by the manufacturer and as described by Das et al. and Muñoz-Garcia et al..
# (§4) The cell viability of the treated spheroids was assessed using the kit CellTiter-Glo 3D (Promega Corporation, Madison, WI, USA). The kit is designed to measure ATP as an indicator of viability, generating a luminescent readout that is more sensitive than colorimetric or fluorescence-based methods. The spheroids were cultivated with compounds at concentrations ranging from 100 pM to 50 μM in triplicate for 72 h, and the luminescence was measured using the Enspire apparatus (PerkinElmer). A standard curve was performed for each analysis as recommended by the manufacturer.
# HCT116KO53 spheroids = assay: Spheroid viability assay (CellTiter-Glo 3D), HCT116 p53 KO spheroids; format: cell-based; settings: 72 h, 100 pM to 50 μM
# Experimental: as §3, §4
# A549 spheroids = assay: Spheroid viability assay (CellTiter-Glo 3D), A549 spheroids; format: cell-based; settings: 72 h, 100 pM to 50 μM
# Experimental: as §3, §4
# U2OS spheroids = assay: Spheroid viability assay (CellTiter-Glo 3D), U2OS spheroids; format: cell-based; settings: human tumors spheroids, 72 h, 100 pM to 50 μM
# Experimental: as §3, §4
# caspase 8 = assay: Caspase 8 activity in lysed HCT116 cells from 2D and spheroids; format: cell-based, human; settings: HCT116 parental spheroids, 25 µM (cisplatin 15 μM), 12 h
# Experimental: (§5) The assay was designed to evaluate the impact of various compounds on caspase activity using a standardized quantity of cell protein lysates after 12 h of incubation. The parental line HCT116 served as the basis for these experiments. Three distinct caspases were examined employing the fluorescence assay kits from Calbiochem (San Diego, CA, USA), specifically a fluorometric caspase-8 assay kit and a fluorimetric caspase-3 assay kit. Additionally, the fluorometric kit from Abcam was utilized to assess caspase-9 activity. Due to the variations in protocols for each caspase, separate plates were prepared for each assay, encompassing both two-dimensional (2D) cell cultures and spheroids. The compound concentrations were established at 25 µM, and assays were conducted in quintuplicate following a 12-h incubation period. The cells were harvested from the plates using the standard trypsin-EDTA solution (Merck Sigma Aldrich, Saint Louis, MO, USA), washed, and counted before lysis, as described in each kit. Cell processing adhered to the guidelines provided by the respective companies, and protein concentration was calculated and standardized using the standard BCA assay. Fluorescent readings were captured using the Enspire apparatus (Perkin-Elmer, MA, USA). Positive controls utilized included staurosporine at a concentration of 5 μM and cisplatin at 15 μM. The kits provided their own standards; however, to normalize all the readings between cultures, types, and treatments, the results were expressed as a percentage relative to the positive control, staurosporine, in 2D culture. […] A total of three separate assays were conducted for each caspase.
# caspase 9 = assay: Caspase 9 activity in lysed HCT116 cells from 2D and spheroids; format: cell-based, human; settings: HCT116 parental spheroids, 25 µM (cisplatin 15 μM), 12 h
# Experimental: as §5
# caspase 3 = assay: Caspase 3 activity in lysed HCT116 cells from 2D and spheroids; format: cell-based, human; settings: 12 h; for Caspase 3 activity, spheroid culture: HCT116 parental spheroids, 25 µM (cisplatin 15 μM); for Caspase 3 activity, 2D culture: HCT116 parental, 25 µM
# Experimental: as §5
# normal human leukocytes = system: normal human leukocytes; set-up: method as in PMID 31449809, PMID 35430982; settings: 0.1 nM to 50 μM in 0.01% DMSO; cited from earlier work
# [1] = system: mixed spheroids of MRC-5 fibroblasts with HCT116 or HCT116 p53 KO cells; assay: Mixed spheroid viability assay; format: cell-based, human; settings: mixed spheroids of fibroblasts and tumor cells
# Experimental: as §4, with “Mixed spheroids were made by mixing MRC-5 fibroblasts with HCT116 or HCT116 p53 KO cells at a ratio of 1:1 (1000 cells/well); the cells were added immediately one after the other, and the formation of spheroids was monitored for 48 hrs. The mixed spheroids of both cell types had similar morphological features. The cell” for “The cell”
# [2] = MRC5, doxorubicin-resistant human fibroblasts
# [3] = HCT-116, human tumors spheroids
SMILES,IC50 (BJ; BJ) [µM],IC50 (BJ LD; Fibroblast) [µM],"IC50 (MRC-5; MRC5, human fibroblasts) [µM]",IC50 (MRC-5 LD; [2]) [µM],IC50 (CCRF-CEM; CCRF-CEM) [µM],"IC50 (K562; K562, human leukemia cell line) [µM]",IC50 (RAJI; Raji) [µM],IC50 (RAMOS; Ramos) [µM],"IC50 (HCT116 par; HCT-116, human tumors 2D) [µM]","IC50 (HCT116KO53; HCT-116, human tumors 2D) [µM]","IC50 (A549; A549, human tumors 2D) [µM]",IC50 (U2OS; U2OS) [µM],IC50 (HCT116 par spheroids; [3]) [µM],IC50 (HCT116KO53 spheroids; [3]) [µM],"IC50 (A549 spheroids; A549, human tumors spheroids) [µM]",IC50 (U2OS spheroids; U2OS) [µM],"Caspase 8 activity, spheroid culture (caspase 8)","Caspase 9 activity, spheroid culture (caspase 9)","Caspase 3 activity, spheroid culture (caspase 3)","Caspase 3 activity, 2D culture (caspase 3)",further results
"C=C1C(=O)C23CCC(C(=C)C)C(C)(CCC(=O)O)C2CCC1C3 (stereo not shown) [Compound 1, Caracasine Acid]",6.88,7.04,6.48,6.69,0.38,4.77,0.85,0.62,1.73,1.52,5.98,1.79,> 50,> 50,> 50,> 50,absence of caspase activity,absence of caspase activity,absence of caspase activity,significant changes,Effect on primary leukocytes (normal human leukocytes): no significant effect
"C=C1C(=O)C23CCC(C(=C)C)C(C)(CCC(=O)OC4CCCCC4)C2CCC1C3 (stereo not shown) [Compound 3, Caracasine Acid Cyclohexyl Ester]",7.38,6.5,5.45,2.69,0.38,2.21,1.86,0.78,1.59,1.63,2.69,1.66,> 50,> 50,> 50,> 50,absence of caspase activity,absence of caspase activity,absence of caspase activity,significant changes,–
"N.N.[Cl][Pt][Cl] [Cisplatin, reference compound]",–,–,–,–,–,–,–,–,–,–,–,–,–,–,–,–,caspase activation was observed,caspase activation was observed,caspase activation was observed,–,IC50 (BJ): 9.5 µM; IC50 (BJ LD): 17.8 µM; IC50 (MRC-5; human fibroblasts): 3.98 µM; IC50 (MRC-5 LD; doxorubicin-resistant human fibroblasts): 23.5 µM; IC50 (CCRF-CEM): 4.62 µM; IC50 (K562; human leukemia cell line): 6.98 µM; IC50 (RAJI): 0.68 µM; IC50 (RAMOS): 0.56 µM; IC50 (HCT116 par; human tumors 2D): 12.5 µM; IC50 (HCT116KO53; human tumors 2D): 8.34 µM; IC50 (A549; human tumors 2D): 9.51 µM; IC50 (U2OS): 9.56 µM; IC50 (HCT116 par spheroids; human tumors spheroids): 15.9 µM; IC50 (HCT116KO53 spheroids; human tumors spheroids): 45.7 µM; IC50 (A549 spheroids; human tumors spheroids): 49.8 µM; IC50 (U2OS spheroids): 21.8 µM; IC50 [1]: 26.8 µM
